Data reported in US12465629B2, “Prevention and treatment of organ injuries” (Farsight Medical Technology (Shanghai) Co., Ltd., priority 2020, dated 2025).

Columns and labels:
[1] = Comparative pharmacokinetic study, tissue distribution; design: species or system SD rats; conditions: rat, in vivo, iv, 3 mg/kg
Procedure: At the respective time points, blood samples and respective organ/tissues were collected and processed according to standard procedures The concentration of the respective drugs in the respective tissues were then measured using a validated LC-Ms/Ms method.

[2] = system: LPS induced lung injury in SD rats; assay: Acute lung injury model study II (LPS induced) in rats; type: in vivo; conditions: 1 and 3 mg/kg iv (G4, G5) at 1 h, 7 h, 24 h after LPS
Procedure: A study was conducted to assess the effect of combined administration of dexamethasone and Compound I in an acute lung injury model. LPS (lipopolysaccharide) was administered to induce lung injury in SD rats (SPF grade male, body weight 180-200 g).
Study group 1 (G1) served as sham control group (no induced acute lung injury) and Group 2 (G2) served as model group (acute lung injury, no treatment).
Dexamethasone, prepared as an aqueous solution, prepared by dissolving the appropriate amount in saline, was used as a positive control in group 3 (G3), and was also administered to group 6 (G6) and group 7 (G7), which also received Compound I. A lyophilized powder of Compound I, was dissolved in an aqueous reconstitution solution comprising Tween 80, acetic acid, sodium acetate, and further diluted with saline before application.
The animals were weighed. LPS (5 mg/kg) was then injected via the trachea of the rat after anesthesia and surgery to expose the trachea (all groups except for G1 where no LPS was injected). […]
Non-invasive lung function tests were determined at 24 hours and at 48 hours (end of the study). […]
Whole lung tissue samples were taken at end of study for histological examination. The histological examination comprised random selection of visual field areas which were blind scored for lung injury. […]

[3] = system: LPS induced lung injury in C57BL/6 mice; assay: Acute lung injury model study (LPS induced) in mice; type: in vivo
Procedure: Compound I was tested in an in vivo mouse model for acute lung injury.
LPS (lipopolysaccharide) was administered to induce lung injury in C57BL/6 mice. LPS elicits an acute inflammatory response in the lung, resulting in progressive damage, and necrosis of lung tissue including the bronchial wall, and alveoli.
LPS (0.3 mg/kg) was administered directly to the trachea of anaesthetized mice in study groups 2 to 6. […]
Non-invasive lung function tests including respiratory frequency, tidal volume, maximum inspiratory speeds and maximal expiratory speeds were determined on Day 2 and end of the study, 24 h after LPS was initially administered.
A significant impact was moreover observed with regards to the pathology of the lung tissue of the mice subjects. […] The histological examination comprised random selection of visual field areas which were blind scored for lung injury according to the following criteria: 1) alveolar congestion, 2) hemorrhage, 3) infiltration of inflammatory cells, and 4) thickness of alveolar wall according to a scale of 0 (minimal damage), 1, (mild damage), 2 (moderate damage), 3 (severe damage), and 4 (maximal damage). […]

In the case of `C/C=C/C[C@@H](C)[C@@H](O)[C@H]1C(=O)N[C@@H](CC)C(=O)N(C)[C@H](OCCN(C)C)C(=O)N(C)[C@@H](CC(C)C)C(=O)N[C@@H](C(C)C)C(=O)N(C)[C@@H](CC(C)C)C(=O)N[C@@H](C)C(=O)N[C@H](C)C(=O)N(C)[C@@H](CC(C)C)C(=O)N(C)[C@@H](CC(C)C)C(=O)N(C)[C@@H](C(C)C)C(=O)N1C` [Compound I, [(R)-2′(2-dimethylaminoethoxy)-Sar]^3 cyclosporin A], the Tmax ([1]; both sexes, Sprague-Dawley (SD)) is reported as 30 min, the Tissue distribution [1] is reported as “distribute to a greater degree to organ tissues, such as the kidney, and the lung” and the “Total bronchial and arteriole injury scoring” value ([2]; FIG. 5B) is reported as “performed significantly better than the model (G2) and the positive group (G3)”. The “Total alveolar injury scoring” value ([2]; vs model G2, FIG. 5A) was “significant positive effect in terms of decreasing the severity of injuries to alveolar tissue”, the “Non-invasive lung function tests (tidal volume, breath rate, peak inspiratory and expiratory flow)” value ([3]; ip 0.5 h and 6 h after LPS, 1, 5, 10 mg/kg, in particular 10 mg/kg, 24 h after LPS, FIG. 1) was “statistically relevant improvements in some of the lung function tests” and the “Histological lung injury scoring (bronchial, arteriole and alveolar tissue)” value ([3]; ip 0.5 h and 6 h after LPS, all doses 1, 5, 10 mg/kg, vs model group G2, FIG. 2) was “significant effect in terms of decreasing the severity of injuries to bronchial, arteriole and alveolar tissue”.
